From PubChem BioAssay AID1794830
Inconclusive results are not listed.

Target: Solute carrier family 2, facilitated glucose transporter member 1 (Homo sapiens) (UniProt P11166)
Assay: SLC2A1-mediated glucose transport in cells – cell-based, flow cytometry, glucose FRET sensor, HEK293 JumpIN TRex, wild type, dose response (AID 1794830)
Details: HEK293 JumpIN SLC2A1-OE

Sequence of Solute carrier family 2, facilitated glucose transporter member 1 (Homo sapiens) (P11166 whole entry, looked up): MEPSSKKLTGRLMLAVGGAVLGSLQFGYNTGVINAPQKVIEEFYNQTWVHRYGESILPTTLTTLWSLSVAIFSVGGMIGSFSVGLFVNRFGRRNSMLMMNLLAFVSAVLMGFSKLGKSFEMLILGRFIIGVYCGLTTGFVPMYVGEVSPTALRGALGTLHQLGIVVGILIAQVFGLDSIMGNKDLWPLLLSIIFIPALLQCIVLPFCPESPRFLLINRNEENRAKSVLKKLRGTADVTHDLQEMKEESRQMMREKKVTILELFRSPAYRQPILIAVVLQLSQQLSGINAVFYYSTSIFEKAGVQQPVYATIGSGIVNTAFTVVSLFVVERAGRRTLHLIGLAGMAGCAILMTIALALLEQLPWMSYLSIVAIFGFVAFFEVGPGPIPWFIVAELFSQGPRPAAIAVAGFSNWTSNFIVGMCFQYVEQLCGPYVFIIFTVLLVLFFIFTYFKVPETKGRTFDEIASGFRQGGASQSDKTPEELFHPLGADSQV

- EC50 (substrate transport, FRET signal increase): 527 µM
SMILES: OC[C@H]1OC(O)[C@H](O)[C@@H](O)[C@@H]1O (stereo partly specified)
